Test results: patent publication US20240239790A1, “7-Morpholino-1,6-Naphthyridin-5-yl Derivatives and Pharmaceutical Compositions Thereof Useful as DNA-PK Inhibitor” (adMare Therapeutics Society, priority 2021, published 2024)
Like-named read-outs stand apart in the source and are kept apart here.

How the values were obtained:
[1] = system: pDNA-PK induction in HCT116 tumour spheroids; assay: Multicellular tumour spheroid + radiation, pDNA-PK (ser2056) inhibition, immunohistochemical endpoint, HCT116; format: cell-based; conditions: Homo sapiens, 20 Gy, 20% O2
Summary of the method: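 HCT116 spheroids (~0.5 mm) in MEM/10% FBS, 20% O2, 37° C., pre-incubated 1 h with compound (10 or 5 μM down to 3.5 nM), irradiated 20 Gy, then 2 h further with compound. Cryosections immunostained for pDNA-PK ser2056; EC50 is concentration halving radiation-induced pDNA-PK.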

DNA-PK = target: T1, DNA-PK (Homo sapiens, UniProt P78527); assay: DNA-PK Assay for Biochemical Enzymatic Inhibition (ADP Glo Kinase assay); conditions: DNA-PK enzyme
T1 construct: purchased Invitrogen PR9107A
Summary of the method: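 Human DNA-PK (25 ng) preincubated 15 min with compounds (ten three-fold dilutions) in HEPES pH 7.5, MgCl2, KCl, calf thymus DNA buffer, then substrate 434.4 μM and ATP 64.4 μM (final) for 60 min at room temperature. ADP-Glo luminescence; percent inhibition fitted by four-parameter regression for IC50.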

[2] = Microsomal Stability Assay, mouse liver microsomes; format: in vitro ADME; conditions: for microsomal CLint at 0.1 uM: male, CD-1, pH 7.4
Description: (§1) Samples were then mixed and centrifuged. Supernatants were used for HPLC-MS/MS analysis. […] Peak areas corresponding to the test compound were recorded.

[3] = Microsomal Stability Assay, human liver microsomes; format: in vitro ADME; conditions: for microsomal CLint at 0.1 uM: both sexes, pH 7.4
Description: as §1

[4] = target: T2, DNA-PK phosphorylation at Serine 2056 (Homo sapiens, UniProt P78527); assay: Cellular Assay for Inhibition of DNA-PK Phosphorylation at Serine 2056 in FaDu cells (sandwich ELISA, neocarzinostatin); format: cell-based; conditions: pSer2056 DNA-PK
T2 construct: FaDu cells were purchased from ATCC; host or cells: FaDu
Summary of the method: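 FaDu cells pre-treated with compound (0.3% DMSO) for 1 h, then neocarzinostatin 1 μg/mL final added for 2 h to induce DSBs. Protein-normalised lysates read by sandwich ELISA for total and pSer2056 DNA-PK; % inhibition normalised between DMSO and NCS controls, IC50 from variable-slope log(inhibitor) fit.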

[5] = Hepatocyte Stability Assay, human hepatocytes; format: in vitro ADME
Description: (§2) Cryopreserved mouse hepatocytes were obtained from a pool of 10 or more male CD-1 mice. Cryopreserved human hepatocytes were obtained from a pool of 10 or more donors of mixed gender. Final hepatocyte density was 0.7 million viable cells per mL and test compound concentration was 1 uM with a maximum of 0.01% DMSO. Cryopreserved hepatocytes were thawed, washed, and resuspended in Krebs-Heinslet buffer (pH 7.3). The reaction was initiated by adding the test compound into cell suspension and incubated for 0, […], 1, 1.5, and 2 h, respectively, at 37° C./5% C02. The reaction was stopped by adding acetonitrile into the incubation mixture. Samples were then mixed, transferred completely to another 96-well plate, and centrifuged. Supernatants were used for HPLC-MS/MS analysis. […] Peak areas corresponding to the test compound were recorded.

[6] = Hepatocyte Stability Assay, mouse hepatocytes; format: in vitro ADME
Description: as §2

[7] = HCT-116, 2 hours following radiation, Example 9 Study 2, read-out: Spheroid Cell line: HCT116 Immunohistochemical endpoint pDNA-PK inhibition EC50
[8] = HCT-116, Spheroid, Cell Line: HCT115 (so in the source), 2 hours following radiation, Example 7, read-out: EC50, Immunohistochemical endpoint, pDNA-PK inhibition
[9] = mouse liver microsomes 0.1 mg/mL, 0.1 uM compound
[10] = human liver microsomes 0.1 mg/mL, 0.1 uM compound
[11] = neocarzinostatin 1 μg/mL, Table 1
[12] = mouse liver microsomes, Example 11
[13] = human liver microsomes, Example 11
[14] = HCT-116, 2 h, spheroids, Example 8, read-out: Cell line: HCT116 Immunohistochemical endpoint pDNA-PK inhibition EC50

Compound | EC50 [1, 7] | EC50 [1, 8] | IC50 (DNA-PK; Table 1) | microsomal CLint at 0.1 uM [2, 9] | Microsomal Stability Mouse % rem. 60 min ([2]; mouse liver microsomes) | microsomal CLint at 0.1 uM [3, 10] | Microsomal Stability Human % rem. 60 min ([3]; human liver microsomes) | IC50 [4, 11] | further results
O=S(=O)(Nc1cnc2cc(N3CCOCC3)nc(O[C@H]3CC[C@@H](Nc4ncccn4)CC3)c2c1)C1CC1 [Compound 186, N-(7-morpholino-5-(((1s,4s)-4-(pyrimidin-2-ylamino)cyclohexyl)oxy)-1,6-naphthyridin-3-yl)cyclopropanesulfonamide] | 1000 to 10000 nM | 1000 to 10000 nM | 0.5 to 1 nM | < 116 µL/min/mg | G (% remaining = 50-75%) | > 116 µL/min/mg | F (% remaining = 25-50%) | < 100 nM | –
CN(C)C(=O)COc1cnc(N[C@H]2CC[C@@H](Oc3nc(N4CCOCC4)cc4ncc(N)cc34)CC2)nc1 [LFA111, 2-[2-[[4-[(3-Amino-7-morpholino-1,6-naphthyridin-5-yl)oxy]cyclohexyl]amino]pyrimidin-5-yl]oxy-N,N-dimethyl-acetamide] | – | – | – | – | – | – | – | – | IC50 (DNA-PK; Table 2): 0.5 to 1 nM; microsomal CLint at 0.1 uM [2, 12]: < 116 µL/min/mg; Microsomal Stability Mouse % rem. 60 min [2, 12]: F (% remaining = 25-50%); microsomal CLint at 0.1 uM [3, 13]: < 116 µL/min/mg; Microsomal Stability Human % rem. 60 min [3, 13]: G (% remaining = 50-75%); IC50 ([4]; Table 2): 100 to 1000 nM
CN(C)C(=O)COc1cnc(N[C@H]2CC[C@@H](Oc3nc(N4CCOCC4)cc4ncc(NS(C)(=O)=O)cc34)CC2)nc1 [LFA012, 2-[2-[[4-[[3-(Methanesulfonamido)-7-morpholino-1,6-naphthyridin-5-yl]oxy]cyclohexyl]amino]pyrimidin-5-yl]oxy-N,N′-dimethyl-acetamide] | – | – | – | – | – | – | – | – | IC50 (DNA-PK; Table 2): < 0.5 nM; Microsomal Stability Mouse % rem. 60 min [2, 12]: H (% remaining = 75-100%); Microsomal Stability Mouse Clint [2, 12]: A (Clint < 116 uL/min/mg); Microsomal Stability Human % rem. 60 min [3, 13]: H (% remaining = 75-100%); Microsomal Stability Human Clint [3, 13]: A (Clint < 116 uL/min/mg); IC50 ([4]; Table 2): 100 to 1000 nM
CN(C)C(=O)COc1ccnc(N[C@H]2CC[C@@H](Oc3nc(N4CCOCC4)cc4ncccc34)CC2)n1 [Compound 56, N,N-dimethyl-2-((2-(((1s,4s)-4-((7-morpholino-1,6-naphthyridin-5-yl)oxy)cyclohexyl)amino)pyrimidin-4-yl)oxy)acetamide] | 500 to 1000 nM | 500 to 1000 nM | < 0.5 nM | > 116 µL/min/mg | E (% remaining = 0-25%) | > 116 µL/min/mg | E (% remaining = 0-25%) | 100 to 1000 nM | –
CN(C)C(=O)COc1ccc(N[C@H]2CC[C@@H](Oc3nc(N4CCOCC4)cc4ncccc34)CC2)nc1 [Compound 55, N,N-dimethyl-2-((6-(((1s,4s)-4-((7-morpholino-1,6-naphthyridin-5-yl)oxy)cyclohexyl)amino)pyridin-3-yl)oxy)acetamide] | – | – | < 0.5 nM | > 116 µL/min/mg | E (% remaining = 0-25%) | > 116 µL/min/mg | F (% remaining = 25-50%) | 100 to 1000 nM | –
CN(C)C(=O)COc1cnc(C(=O)N[C@H]2CC[C@@H](Oc3nc(N4CCOCC4)cc4ncccc34)CC2)nc1 [Compound 125] | 1000 to 10000 nM | 1000 to 10000 nM | 0.5 to 1 nM | < 116 µL/min/mg | H (% remaining = 75-100%) | < 116 µL/min/mg | H (% remaining = 75-100%) | 100 to 1000 nM | –
c1cnc2cc(N3CCOCC3)nc(O[C@H]3CC[C@@H](Nc4ncc(OCCN5CCNCC5)cn4)CC3)c2c1 [Compound 70, N-((1s,4s)-4-((7-Morpholino-1,6-naphthyridin-5-yl)oxy)cyclohexyl)-5-(2-(piperazin-1-yl)ethoxy)pyrimidin-2-amine] | 1000 to 10000 nM | 1000 to 10000 nM | < 0.5 nM | > 116 µL/min/mg | F (% remaining = 25-50%) | > 116 µL/min/mg | F (% remaining = 25-50%) | < 100 nM | –
CS(=O)(=O)NCCOc1cnc(N[C@H]2CC[C@@H](Oc3nc(N4CCOCC4)cc4ncccc34)CC2)nc1 [Compound 67] | 10 to 500 nM | 500 to 1000 nM | < 0.5 nM | < 116 µL/min/mg | G (% remaining = 50-75%) | > 116 µL/min/mg | E (% remaining = 0-25%) | < 100 nM | –
O=C(COc1cnc(N[C@H]2CC[C@@H](Oc3nc(N4CCOCC4)cc4ncccc34)CC2)nc1)N1CC(F)C1 [Compound 76, 1-(3-Fluoroazetidin-1-yl)-2-((2-(((1s,4s)-4-((7-morpholino-1,6-naphthyridin-5-yl)oxy)cyclohexyl)amino)pyrimidin-5-yl)oxy)ethan-1-one] | 1000 to 10000 nM | – | < 0.5 nM | – | – | – | – | 100 to 1000 nM | hepatocyte CLint at 1 uM ([5]; both sexes, cryopreserved hepatocytes, pH 7.3, human hepatocytes 0.7 million cells per mL, 1 uM compound): < 8.2 µL/min/1e6 cells; Hepatocyte Stability Human % rem. 120 min ([5]; human hepatocytes, 120 min): G (% remaining = 50-75%); hepatocyte CLint at 1 uM ([6]; male, CD-1, cryopreserved hepatocytes, pH 7.3, mouse hepatocytes 0.7 million cells per mL, 1 uM compound): > 8.2 µL/min/1e6 cells; Hepatocyte Stability Mouse % rem. 120 min ([6]; mouse hepatocytes, 120 min): F (% remaining = 25-50%)
CN(C)C(=O)COc1cnc(N[C@H]2CC[C@@H](Oc3nc(N4CCOCC4)cc4ncc(O)cc34)CC2)nc1 [LFA113, 2-[2-[[4-[(3-Hydroxy-7-morpholino-1,6-naphthyridin-5-yl)oxy]cyclohexyl]amino]pyrimidin-5-yl]oxy-N,N-dimethyl-acetamide] | – | – | – | – | – | – | – | – | IC50 (DNA-PK; Table 2): < 0.5 nM; microsomal CLint at 0.1 uM [2, 12]: < 116 µL/min/mg; Microsomal Stability Mouse % rem. 60 min [2, 12]: F (% remaining = 25-50%); microsomal CLint at 0.1 uM [3, 13]: < 116 µL/min/mg; Microsomal Stability Human % rem. 60 min [3, 13]: H (% remaining = 75-100%); IC50 ([4]; Table 2): < 100 nM
NC(=O)c1cnc2cc(N3CCOCC3)nc(O[C@H]3CC[C@@H](n4ccnc4)CC3)c2c1 [Compound 166, 5-(((1s,4s)-4-(1H-imidazol-1-yl)cyclohexyl)oxy)-7-morpholino-1,6-naphthyridine-3-carboxamide] | 10000 to 100000 nM | 10000 to 100000 nM | 1 to 10 nM | > 116 µL/min/mg | E (% remaining = 0-25%) | – | – | 10000 to 30000 nM | EC50 [1, 14]: 10000 to 100000 nM
NC(=O)COc1cnc(N[C@H]2CC[C@@H](Oc3nc(N4CCOCC4)cc4ncccc34)CC2)nc1 [Compound 60, 2-((2-(((1s,4s)-4-((7-Morpholino-1,6-naphthyridin-5-yl)oxy)cyclohexyl)amino)pyrimidin-5-yl)oxy)acetamide] | 10 to 500 nM | 10 to 500 nM | < 0.5 nM | > 116 µL/min/mg | F (% remaining = 25-50%) | – | – | < 100 nM | –
CN(C)C(=O)Cn1cccc1C(=O)N[C@H]1CC[C@@H](Oc2nc(N3CCOCC3)cc3ncccc23)CC1 [Compound 146, 1-(2-(dimethylamino)-2-oxoethyl)-N-((1s,4s)-4-((7-morpholino-1,6-naphthyridin-5-yl)oxy)cyclohexyl)-1H-pyrrole-2-carboxamide] | 1000 to 10000 nM | 1000 to 10000 nM | 1 to 10 nM | > 116 µL/min/mg | F (% remaining = 25-50%) | – | – | 1000 to 10000 nM | –
NC(=O)N[C@H]1CC[C@@H](Oc2nc(N3CCOCC3)cc3ncccc23)CC1 [Compound 15, 1-((1s,4s)-4-((7-morpholino-1,6-naphthyridin-5-yl)oxy)cyclohexyl)urea] | 1000 to 10000 nM | 1000 to 10000 nM | 1 to 10 nM | > 116 µL/min/mg | E (% remaining = 0-25%) | – | – | 100 to 1000 nM | EC50 [1, 14]: 1000 to 10000 nM
